Earlier results as cited in patent US20040248901A1, “Compositions containing itraconazole and their preparation methods” (priority 2001, published 2004).

Conditions: background art

solubility in water: ≤ 1 µg/mL
Structure (SMILES): CCC(C)n1ncn(-c2ccc(N3CCN(c4ccc(OCC5COC(Cn6cncn6)(c6ccc(Cl)cc6Cl)O5)cc4)CC3)cc2)c1=O (mixture of isomers) [itraconazole, (±)-cis-4-[4-[4-[4-[[2-(2,4-dichlorophenyl)-2-(1H-1,2,4-triazol-1-ylmethyloxolan-4-yl]methoxy]phenyl]-1-piperazinyl]phenyl]-2,4-dihydro-2-(1-methylpropyl)-3H-1,2,4-triazol-3-one]
